Results reported in patent US20240316052A1, “MITOCHONDRIAL SUPERCOMPLEX FORMATION PROMOTER, COMPOSITION FOR MAINTAINING OR IMPROVING MUSCULAR STRENGTH, THERAPEUTIC OR PREVENTATIVE PHARMACEUTICAL COMPOSITION FOR DISEASES WHICH DECREASE MITOCHONDRIAL FUNCTION OR MUSCULAR FUNCTION, AND SCREENING METHOD FOR SUBSTANCES WHICH CONTRIBUTE TO …” (TOKYO METROPOLITAN GERIATRIC HOSPITAL AND INSTITUTE OF …, priority 2021, published 2024).
Entries after “also recorded” stand apart in the source; their conditions may differ. Read-outs that look alike come from different tables or passages of the source.

Assays:
[1] = system: mitochondrial respiratory chain supercomplex formation (NDUFB8-AcGFP / COX8A-DsRed monomer); test: FRET (cFRET/Donor) in C2C12 cells stably co-expressing NDUFB8-AcGFP and COX8A-DsRed monomer; assay type: cell-based, mouse
From the text: In addition, the protein in which the subunit NDUFB8 of respiratory chain complex I was labeled with AcGFP, and the protein in which the subunit COX8A of respiratory chain complex IV labeled with DsRed monomer, were co-expressed, whereby the fluorescence of DsRed monomer was detected at the excitation wavelength of AcGFP, and the FRET efficiency can be calculated (FIG. 2B).
FRET signals between respiratory chain complex subunits in stably expressing cells were examined using C2C12 cells stably expressing both NDUFB8-AcGFP and COX8A-DsRed monomer and C2C12 cells stably expressing both UQCR11-AcGFP and ATP5F1c-DsRed monomer.
The sequences of siRNAs are as follows.
In the primary screening, the cFRET/Donor of living cells with 40 μM of each 1280 compound was measured using the C2C12 expressing cells stably co-expressing NDUFB8-AcGFP and COX8A-DsRed monomer established in this study (FIG. 5B). In the secondary screening, cFRET/Donor was measured by adding 40, 20, 10, 2.5, or 0.6 μM of each compound.
MNS was added to stably expressed C2C12 cells stepwise from low to high concentrations, and the cFRET/Donor was measured. […] In the following experiments, the respiratory chain supercomplex was examined in C2C12 cells under the condition of 1 μM addition.

[2] = system: respiratory chain supercomplexes I+III2+IV, I+III2, III2+IV; test: BN-PAGE of mitochondrial fractions extracted from C2C12 cells; assay type: cell-based, mouse; conditions: compound added, compared to DMSO
C2C12 cells = test: Oxygen consumption, XFp Extracellular Flux Analyzer; assay type: cell-based, mouse; conditions: 1 μM, compared to solvent-only control
Method: Oxygen consumption rate (OCR) was measured as follows. The C2C12 cells were seeded (5×10^3 cells/well) in […] (Agilent Tech, CA, USA) and incubated overnight before measuring OCR and ECAR. One hour before the measurement, the medium was replaced with XF base medium containing 1 mM sodium pyruvate, 2 mM […] and 25 mM glucose (Agilent Tech). Basal respiration, ATP production, and maximal respiration (spare respiratory capacity) of C2C12 cells were measured using XFp Extracellular Flux Analyzer (Agilent Tech) and Mito Stress Kit for XFp (Agilent Tech). The drugs were added in the following order: 1.0 μM oligomycin, 0.5 μM carbonyl cyanide-p-trifluoromethoxyphenylhydrazone, and 0.5 μM rotenone. The baseline (basal) OCR was measured three times before and after the addition of the drugs.

DBA/2CrSc1 mice [3] = test: Wire-hang test in mice; assay type: in vivo; conditions: intraperitoneal, compared to DMSO-treated group
Method: (§1) Seven-week-old DBA/2CrSc1 mice were injected intraperitoneally with MNS, or DMSO as a control. […] In addition, the formation of respiratory chain supercomplexes by BN-PAGE were compared using mitochondrial fractions extracted from the extensor digitorum longus and soleus muscles of the mice in each group.

DBA/2CrSc1 mice [4] = test: Treadmill test in mice; assay type: in vivo; conditions: intraperitoneal, compared to DMSO-treated group
Method: as §1

[5] = Toxicity and body weight in mice, intraperitoneal injection; conditions: seven-week-old DBA/2CrSc1 mice, vs DMSO
Method: as §1

mitochondrial function = conditions: already reported; cited from earlier work
[6] = system: respiratory chain supercomplexes I+III2+IVn (n=1-2), I+III2, III2+IV; test: BN-PAGE of mitochondrial fractions from extensor digitorum longus and soleus muscles of mice; assay type: in vivo; conditions: mitochondria of both extensor digitorum longus and soleus muscles, compared to DMSO
Method: as §1

Syk = Syk mRNA and protein expression after siRNA; assay type: cell-based, mouse; conditions: C2C12 cells
From the text: Both mRNA and protein expression levels of Syk in C2C12 cells were suppressed by the above #1 and #2 siRNAs. The above siSyk was transfected into cells stably expressing NDUFB8-AcGFP and COX8A-DsRed monomer, and FRET signals were examined. FRET efficiency was increased in siSyk treatment, compared to siControl treatment (FIG. 7A). The formation of respiratory chain supercomplexes was compared using the same siRNA and mitochondrial fractions extracted from C2C12 cells in which Syk expression was suppressed, according to BN-PAGE. […] Oxygen consumption of C2C12 cells in siControl or siSyk treatment was measured using XFp Extracellular Flux Analyzer.

[7] = primary 40 μM; secondary 40, 20, 10, 2.5, 0.6 μM; then BN-PAGE
[8] = compound added, compared to DMSO

Row | Compound | formation of respiratory chain supercomplexes I+III2+IV, I+III2, III2+IV (BN-PAGE) [2] | basal respiration (C2C12 cells) | maximal respiration (spare respiratory capacity) (C2C12 cells) | time holding the wire (DBA/2CrSc1 mice [3]) | running distance (DBA/2CrSc1 mice [4]) | running time (DBA/2CrSc1 mice [4]) | change in body weight [5] | toxicity [5] | outcome of three-step screening (FRET and BN-PAGE) of LOPAC 1280 for compounds that promote respiratory chain supercomplex formation [1, 7] | mRNA expression level of Syk (Syk) | protein expression level of Syk (Syk) | further results
1 | COc1ccc(-c2cc3nccn3c(Nc3ncccc3C(N)=O)n2)cc1OC [BAY61-3606, 2-[[7-(3,4-dimethoxyphenyl)imidazo[1,2-c]pyrimidin-5-yl]amino]pyridine-3-carboxamide] | increased | significant increases | significant increases | significantly prolonged | significantly longer | significantly longer | no change | no significant toxicity |  |  |  | EC50 ([1]; stably expressed C2C12 cells, added stepwise from low to high concentrations; read-out: 50% effective concentration (EC50) from cFRET/Donor dose-response curve): 1 µM; ATP production (C2C12 cells): significant increases
2 | CC1(C)CCC2=C(O1)c1ccccc1C(=O)C2=O [Beta-lapachone] |  |  |  |  |  |  |  |  | screened |  |  | mitochondrial function (mitochondrial function): improve mitochondrial function
3 | O=[N+]([O-])/C=C/c1ccc2c(c1)OCO2 [MNS, 3,4-methylenedioxy-β-nitrostyrene] | increased | significant increases | significant increases | significantly prolonged | significantly longer | significantly longer | no change | no significant toxicity | screened |  |  | FRET efficiency between subunit fluorescent fusion proteins of respiratory chain complexes I and IV [1, 8]: increase; corrected value of cFRET/Donor [1, 8]: significantly increased; also recorded: improvement; EC50 ([1]; read-out: 50% effective concentration (EC50) from cFRET/Donor dose-response curve; stably expressed C2C12 cells, added stepwise from low to high concentrations): 0.574 µM; formation of respiratory chain supercomplexes I+III2+IVn (n=1-2), I+III2, III2+IV (BN-PAGE) [6]: increased
4 | siSyk #1: siRNA against Syk, sense strand SEQ ID NO:1 and antisense strand SEQ ID NO:2 (sense AAUGAAUUCAACAUACAGGGA; antisense CCUGUAUGUUGAAUUCAUUGA; listed as RNA, chemistry not given here) |  |  |  |  |  |  |  |  |  | suppressed | suppressed | 
5 | siSyk #2: siRNA against Syk, sense strand SEQ ID NO:3 and antisense strand SEQ ID NO:4 (sense UUAAUCUUGACAGUAAGACAC; antisense GUCUUACUGUCAAGAUUAAUU; listed as RNA, chemistry not given here) |  |  |  |  |  |  |  |  |  | suppressed | suppressed | 
